# From patent US20130158362A1 (INFACARE PHARMACEUTICAL CORPORATION, priority 2011, published 2013)
# “Also recorded” adds a separate entry of the source.
# Assays:
# Assay type in all cases: in vivo, human
# [1] = tested on: term and late preterm subjects with hyperbilirubinemia; assay: Phase 2b trial: adverse events
# Source text: (§1) Safety measurements included adverse events (AEs), hematology and chemistry laboratory tests, vital sign measurements, physical examinations, dermatological assessments, hearing assessments, ophthalmological assessments, neurological assessments, and quantitative electrocardiograms (ECGs).
# Safety population: Defined as all subjects who were enrolled in the clinical study and received IMP. Subjects were summarized according to the treatment received.
# Analysis of Safety Parameters: Descriptive statistical methods were used to summarize safety parameters based on the safety population. All treatment-emergent adverse events (TEAEs) were summarized. Tabular summaries were also presented for all TEAEs considered potentially related to the IMP, TEAEs by intensity, serious adverse events (SAEs), and AEs leading to discontinuation.
# [2] = tested on: term and late preterm subjects with hyperbilirubinemia; assay: Phase 2b trial: quantitative electrocardiograms (QT)
# Source text: In some embodiments, 12-Lead ECGs measurements comprise clarification of a cardiovascular event, measurement of cardiac intervals and morphological assessment, measurements of the RR, PR, QRS, and QT interval durations and combinations thereof. In some embodiments, Bazett's correction of the QT interval (QTcB), Fridericia's correction of the QT interval (QTcF), and heart rate (HR) can be derived from 12-Lead ECGs measurements.
# as §1
# All other safety endpoints (vital sign measurements, hematology and chemistry laboratory tests, physical examination results, ECG results, etc.) were summarized by treatment group and visit. In addition, shift tables were generated for laboratory results comparing postbaseline results with baseline. Similar shift tables were generated for results of vital sign measurements.
# [3] = tested on: term and late preterm subjects with hyperbilirubinemia; assay: Phase 2b trial: dermatological assessment (rash)
# Source text: In some embodiments, dermatological examinations comprise the identification of photosensitive reactions if any. Photosensitive reaction may occur with metalloporphyrins and broad spectrum light. Photosensitive reactions include skin rashes.
# as §1
substance,measurement,setting,value
tin IV mesoporphyrin IX dichloride [Stannsoporfin],"# of subjects one AE, n (%)",[1]; 1.5 mg/kg IM,8 (47.1%)
same,"AE Anal Abscess: subjects, n (%)",[1]; 1.5 mg/kg IM,0
same,"AE Anemia: subjects, n (%)",[1]; 1.5 mg/kg IM,0
same,"AE Bradycardia: subjects, n (%)",[1]; 1.5 mg/kg IM,0
same,"AE CO2 decreased: subjects, n (%)",[1]; 1.5 mg/kg IM,0
same,"AE CRP increased: subjects, n (%)",[1]; 1.5 mg/kg IM,1 (5.9%)
same,"AE Contusion: subjects, n (%)",[1]; 1.5 mg/kg IM,1 (5.9%)
same,"AE Depressed level consciousness: subjects, n (%)",[1]; 1.5 mg/kg IM,0
same,"AE Diaper dermatitis: subjects, n (%)",[1]; 1.5 mg/kg IM,2 (11.8%)
same,"AE Erythema toxicum: subjects, n (%)",[1]; 1.5 mg/kg IM,0
same,"AE Erythema: subjects, n (%)",[1]; 1.5 mg/kg IM,0
same,"AE Flushing: subjects, n (%)",[1]; 1.5 mg/kg IM,0
same,"AE Hemangioma: subjects, n (%)",[1]; 1.5 mg/kg IM,1 (5.9%)
same,"AE Hemoglobin increased: subjects, n (%)",[1]; 1.5 mg/kg IM,0
same,"AE Hyperbilirubinemia: subjects, n (%)",[1]; 1.5 mg/kg IM,2 (11.8%)
same,"AE Jaundice: subjects, n (%)",[1]; 1.5 mg/kg IM,5 (29.4%)
same,"AE Leukocytosis: subjects, n (%)",[1]; 1.5 mg/kg IM,0
same,"AE Meningitis: subjects, n (%)",[1]; 1.5 mg/kg IM,0
same,"AE Oral Candidiasis: subjects, n (%)",[1]; 1.5 mg/kg IM,0
same,"AE Rash neonatal: subjects, n (%)",[1]; 1.5 mg/kg IM,0
same,"AE Rash papular: subjects, n (%)",[1]; 1.5 mg/kg IM,0
same,"AE Rash: subjects, n (%)",[1]; 1.5 mg/kg IM,1 (5.9%)
same,"AE Seborrhoeic dermatitis: subjects, n (%)",[1]; 1.5 mg/kg IM,0
same,"AE Serum Glucose decreased: subjects, n (%)",[1]; 1.5 mg/kg IM,0
same,"AE Serum sodium increased: subjects, n (%)",[1]; 1.5 mg/kg IM,0
same,"AE Skin exfoliation: subjects, n (%)",[1]; 1.5 mg/kg IM,1 (5.9%)
same,"AE Thrombocytopenia: subjects, n (%)",[1]; 1.5 mg/kg IM,0
same,"AE Umbilical Hernia: subjects, n (%)",[1]; 1.5 mg/kg IM,0
same,"AE Vomiting: subjects, n (%)",[1]; 1.5 mg/kg IM,0
same,Total AEs,"[1]; 1.5 mg/kg IM, N = 17",17
same,"# of subjects one AE, n (%)",[1]; 3.0 mg/kg IM,10 (55.6%)
same,"AE Anal Abscess: subjects, n (%)",[1]; 3.0 mg/kg IM,1 (5.6%)
same,"AE Anemia: subjects, n (%)",[1]; 3.0 mg/kg IM,1 (5.6%)
same,"AE Bradycardia: subjects, n (%)",[1]; 3.0 mg/kg IM,0
same,"AE CO2 decreased: subjects, n (%)",[1]; 3.0 mg/kg IM,1 (5.6%)
same,"AE CRP increased: subjects, n (%)",[1]; 3.0 mg/kg IM,0
same,"AE Contusion: subjects, n (%)",[1]; 3.0 mg/kg IM,0
same,"AE Depressed level consciousness: subjects, n (%)",[1]; 3.0 mg/kg IM,0
same,"AE Diaper dermatitis: subjects, n (%)",[1]; 3.0 mg/kg IM,1 (5.6%)
same,"AE Erythema toxicum: subjects, n (%)",[1]; 3.0 mg/kg IM,3 (16.7%)
same,"AE Erythema: subjects, n (%)",[1]; 3.0 mg/kg IM,1 (5.6%)
same,"AE Flushing: subjects, n (%)",[1]; 3.0 mg/kg IM,1 (5.6%)
same,"AE Hemangioma: subjects, n (%)",[1]; 3.0 mg/kg IM,0
same,"AE Hemoglobin increased: subjects, n (%)",[1]; 3.0 mg/kg IM,0
same,"AE Hyperbilirubinemia: subjects, n (%)",[1]; 3.0 mg/kg IM,1 (5.6%)
same,"AE Jaundice: subjects, n (%)",[1]; 3.0 mg/kg IM,0
same,"AE Leukocytosis: subjects, n (%)",[1]; 3.0 mg/kg IM,0
same,"AE Meningitis: subjects, n (%)",[1]; 3.0 mg/kg IM,0
same,"AE Oral Candidiasis: subjects, n (%)",[1]; 3.0 mg/kg IM,0
same,"AE Rash neonatal: subjects, n (%)",[1]; 3.0 mg/kg IM,1 (5.6%)
same,"AE Rash papular: subjects, n (%)",[1]; 3.0 mg/kg IM,0
same,"AE Rash: subjects, n (%)",[1]; 3.0 mg/kg IM,0
same,"AE Seborrhoeic dermatitis: subjects, n (%)",[1]; 3.0 mg/kg IM,1 (5.6%)
same,"AE Serum Glucose decreased: subjects, n (%)",[1]; 3.0 mg/kg IM,1 (5.6%)
same,"AE Serum sodium increased: subjects, n (%)",[1]; 3.0 mg/kg IM,1 (5.6%)
same,"AE Skin exfoliation: subjects, n (%)",[1]; 3.0 mg/kg IM,0
same,"AE Thrombocytopenia: subjects, n (%)",[1]; 3.0 mg/kg IM,0
same,"AE Umbilical Hernia: subjects, n (%)",[1]; 3.0 mg/kg IM,1 (5.6%)
same,"AE Vomiting: subjects, n (%)",[1]; 3.0 mg/kg IM,0
same,Total AEs,"[1]; 3.0 mg/kg IM, N = 18",16
same,serious adverse event Anemia: Outcome,"[1]; 3.0 mg/kg, Rh incompatibility, required transfusion",Resolved
same,"# of subjects one AE, n (%)",[1]; 4.5 mg/kg IM,3 (37.5%)
same,"AE Anal Abscess: subjects, n (%)",[1]; 4.5 mg/kg IM,0
same,"AE Anemia: subjects, n (%)",[1]; 4.5 mg/kg IM,1 (12.5%)
same,"AE Bradycardia: subjects, n (%)",[1]; 4.5 mg/kg IM,1 (12.5%)
same,"AE CO2 decreased: subjects, n (%)",[1]; 4.5 mg/kg IM,0
same,"AE CRP increased: subjects, n (%)",[1]; 4.5 mg/kg IM,0
same,"AE Contusion: subjects, n (%)",[1]; 4.5 mg/kg IM,0
same,"AE Depressed level consciousness: subjects, n (%)",[1]; 4.5 mg/kg IM,1 (12.5%)
same,"AE Diaper dermatitis: subjects, n (%)",[1]; 4.5 mg/kg IM,0
same,"AE Erythema toxicum: subjects, n (%)",[1]; 4.5 mg/kg IM,0
same,"AE Erythema: subjects, n (%)",[1]; 4.5 mg/kg IM,1 (12.5%)
same,"AE Flushing: subjects, n (%)",[1]; 4.5 mg/kg IM,0
same,"AE Hemangioma: subjects, n (%)",[1]; 4.5 mg/kg IM,0
same,"AE Hemoglobin increased: subjects, n (%)",[1]; 4.5 mg/kg IM,1 (12.5%)
same,"AE Hyperbilirubinemia: subjects, n (%)",[1]; 4.5 mg/kg IM,0
same,"AE Jaundice: subjects, n (%)",[1]; 4.5 mg/kg IM,0
same,"AE Leukocytosis: subjects, n (%)",[1]; 4.5 mg/kg IM,1 (12.5%)
same,"AE Meningitis: subjects, n (%)",[1]; 4.5 mg/kg IM,1 (12.5%)
same,"AE Oral Candidiasis: subjects, n (%)",[1]; 4.5 mg/kg IM,0
same,"AE Rash neonatal: subjects, n (%)",[1]; 4.5 mg/kg IM,0
same,"AE Rash papular: subjects, n (%)",[1]; 4.5 mg/kg IM,0
same,"AE Rash: subjects, n (%)",[1]; 4.5 mg/kg IM,0
same,"AE Seborrhoeic dermatitis: subjects, n (%)",[1]; 4.5 mg/kg IM,0
same,"AE Serum Glucose decreased: subjects, n (%)",[1]; 4.5 mg/kg IM,0
same,"AE Serum sodium increased: subjects, n (%)",[1]; 4.5 mg/kg IM,0
same,"AE Skin exfoliation: subjects, n (%)",[1]; 4.5 mg/kg IM,0
same,"AE Thrombocytopenia: subjects, n (%)",[1]; 4.5 mg/kg IM,1 (12.5%)
same,"AE Umbilical Hernia: subjects, n (%)",[1]; 4.5 mg/kg IM,0
same,"AE Vomiting: subjects, n (%)",[1]; 4.5 mg/kg IM,0
same,Total AEs,"[1]; 4.5 mg/kg IM, N = 8",8
same,serious adverse event Meningitis: Outcome,"[1]; 4.5 mg/kg, negative cultures",Resolved
same,subjects who experienced at least 1 TEAE,[1]; each treatment group,Greater than 30%
same,"incidence of TEAEs, 3 stannsoporfin treatment groups versus placebo",[1]; final data,no statistically significant differences
same,QT prolongation,[2]; 1.5 to 4.5 mg/kg IM,no QT prolongation
same,"effect on heart rate, PR interval, RR interval, QRS complexes and QT interval",[2]; 1.5 to 4.5 mg/kg IM,no effect
same,ECG results compared to the placebo group,[2]; final data,no dose-related trends or marked differences
same,"Rash and PT, n (% of those with a rash)",[3]; 1.5 mg/kg IM,2 (66.7%)
same,"Subjects with any rash, n (%)",[3]; 1.5 mg/kg IM,3 (17.6%)
same,types of rashes observed,[3]; 1.5 mg/kg IM,Contusion; also recorded: Diaper Dermatitis; also recorded: PT Induced rash*; also recorded: Desquamation; also recorded: Contact Dermatitis
same,"Rash and PT, n (% of those with a rash)",[3]; 3.0 mg/kg IM,3 (37.5%)
same,"Subjects with any rash, n (%)",[3]; 3.0 mg/kg IM,8 (44.4%)
same,types of rashes observed,[3]; 3.0 mg/kg IM,Neonatal Acne; also recorded: Erythema; also recorded: Seborrhea; also recorded: Diaper rash; also recorded: Flushing
same,"Rash and PT, n (%)",[3]; 4.5 mg/kg IM,1 (12.5%)
same,"Subjects with any rash, n (%)",[3]; 4.5 mg/kg IM,1 (13.3%)
same,types of rashes observed,[3]; 4.5 mg/kg IM,Erythema **
